From patent US20240209028A1, “CNP COMPOUNDS” (priority 2022, published 2024) come the findings set out here.

Starred links: 1 amine or outer side, 2 acyl side, 3 side chain; linkers in the order of their positions; H or OH if unused. Positions of bridges follow the written chain, without caps; N, C: chain ends. Residues, ends and D or L forms follow the SMILES beside them. *: point of attachment. C18 diacid = O=C(O)CCCCCCCCCCCCCCCCC(=O)*; γGlu = O=C(O)[C@H](CCC(=O)[*:2])N[*:1]; AEEA = NCCOCCOCC(=O)O

A short description of series [1]: PK after i.v. and s.c. administration to domestic LYD pig. The following applies: female, pig, in vivo; for bioavailability: LYD (domestic); for clearance / half-life: LYD. The procedure: (§1) The purpose of this study was to investigate pharmacokinetic and pharmacodynamic properties after intravenous (i.v.) and subcutaneous (s.c.) administration to Gottingen Minipig and domestic LYD pig, and to estimate bioavailability after s.c. dosing. Quantitative plasma analysis of CNP and cGMP levels were performed as described in
(§2) Animals and dosing: The pharmacokinetic and pharmacodynamic studies in Gottingen Minipig or domestic LYD pig were conducted at CRO Minerva Imaging or Novo Nordisk A/S, respectively. CNP compounds were dosed to normal female 1) Gottingen minipigs 6-12 months of age with an average weight of 22 kg or 2) domestic LYD pigs 4-5 months of age with and average weight of 80 kg. At least one week prior to dosing, permanent central venous catheters were implanted for blood sampling and intravenous (i.v.) dosing. For subcutaneous (s.c.) dosing, the pigs were ultrasound scanned and the optimal injection area laterally on the neck marked by a permanent tattoo. An insulin pen (NovoPen Echo or NovoPen 4) and insulin needle (NovoFine 32G/4 mm or NovoTwist 32G/5 mm) were used for accurate deposition of the CNP formulations in the subcutaneous fat tissue with the needle perpendicular to the skin.
(§3) CNP compounds were formulated according to the principles in General Methods of Preparation—Method G and were either A) 8 mM sodium phosphate, 250 mM glycerol, pH 6.5, B) 5 mM sodium acetate, 250 mM glycerol, pH 4.0, C) 5 mM sodium acetate, 240 mM propylene glycol, pH=4.0, D) 8 mM sodium phosphate, 250 mM glycerol, pH 7.5 or E) 20 mM sodium phosphate, 223 mM propylene glycol, pH 6.0.
(§4) Intravenously, the CNP compounds were dosed at 30-60 nmol/kg to Minipig and 15-43 nmol/kg to domestic pig using formulations A-E. Subcutaneously, the CNP compounds were dosed at 55-62 nmol/kg to Minipig and 20-30 nmol/kg to domestic pig using formulations A-D.
(§5) Sampling: Blood samples of approximately 1 mL were collected pre dose and up to 14 days post dose into EDTA-coated tubes (8 mM) for cGMP and CNP compound analysis by LC-MS. In few instances, cGMP was only analysed up to 48 hours post dose after intravenous dosing in domestic LYD pig. The blood samples were kept on wet ice for maximum 30 minutes until centrifugation for 10 minutes at 4° C. and minimum 1500G, and the plasma samples were stored at −20° C. until analysis.
(§6) Plasma concentration-time profiles were analyzed by non-compartmental PK analysis using Phoenix WinNonlin 8.1, Pharsight Inc., Mountain View, CA, USA. Calculation of the area under the plasma concentration-time curve (AUC) was based on the “linear up log down” method, and uniform weighting was used for estimation of the terminal rate constant (λz). S.c. bioavailability (F) was calculated as the dose-normalized AUC (AUC/dose) after s.c. administration divided by the AUC/dose after i.v. administration. […]

Series [2] can be described thus: PK after i.v. and s.c. administration to Göttingen minipig. The following applies: female, Göttingen, minipig, in vivo. The method, then: as §1, §2, §3, §4, §5, §6
Series [3] is described as follows: Local tolerance of CNP compounds in rats (s.c. injection, histopathology). The series is classed as in vivo, Sprague Dawley rat. Particulars: rat, s.c. 350 μl, about 1000 nmol/ml, 5 days post injection. The method, then:
The purpose of this study was to evaluate the local tissue reaction to subcutaneous injection of CNP compounds in rats.
Procedure: The CNP compounds were formulated according to the principles described in General Methods of Preparation-Method G. Each Sprague Dawley rat (male, 10-11 weeks of age at arrival, Janvier, France) was dosed s.c. with 250 or 350 uL of the same compound (formulation concentration of 1000 nmol/mL) 120 h prior to tissue collection resulting in a total of two injections for each animal (Table 15). Injection site (flank or neck) was alternated across animals within each group and time point.
Animals had access to tap water and food (Altromin 1324) ad libitum. Group size was n=3 for vehicles and positive control, and n=4 for test compounds. Vehicles and compounds were formulated in either 5 mM sodium acetate, 250 mM glycerol, pH 4.0 or 8 mM sodium phosphate, 250 mM glycerol, pH 7.4 as shown in Table 16.
The animals were anesthetized with isoflurane. Via an electric shaving machine, a squared area of fur (2 cm×2 cm) was removed either from the rats' neck or flank area). For dosing, a new injection needle (25G canula, 1 ml syringe) was placed in the middle of the square border closest to the animal's head and the needle was inserted into the skin from the border towards the center of the square. […] On the day of tissue collection, the rats were deeply anaesthetized with isoflurane and euthanized by exsanguination. The injection sites were inspected and scored with regards to pathological lesions. The injection sites were evaluated, and any changes were noted (location, colour, shape and size), and sampled for histology preparation.
The injection sites were removed and fixed in 4% phosphate buffered neutral formaldehyde in sealed plastic containers.
Each injection site was subsequently cut into three sections 0.8 cm, 1.0 cm and 1.2 cm from the square border where the injection needle was placed, and, respectively, these sections represented the injection sites and the adjacent tissue. The tissue was processed, embedded in paraffin and cut in 2-4 μm thin sections, stained with the haematoxylin and eosin (H&E), and evaluated microscopically with a light microscope. Histopathological changes were graded on a 5-level scale (Minimal (Min), Mild (Mil), Moderate (Mod), Marked (Mar) and Severe (Sev)).

As a reminder, the bioavailability is the share of a dose that reaches the circulation, judged against a reference dose that is usually intravenous. Low readings indicate little systemic uptake, high ones much systemic uptake. As usually defined, the half-life is the time needed for the level to fall by half in the phase considered. High values mean slow loss, low ones fast loss.

In the case of `CC[C@H](C)[C@@H]1NC(=O)[C@H](CCCNC(=N)N)NC(=O)[C@H](CCC(=O)O)NC(=O)[C@H](CC(C)C)NC(=O)[C@H](CCCCN)NC(=O)[C@H](CC(C)C)NC(=O)CNC(=O)[C@H](Cc2ccccc2)NC(=O)[C@@H](NC(=O)CNC(=O)[C@H](CCCCN)NC(=O)[C@H](CO)NC(=O)[C@H](CC(C)C)NC(=O)CNC(=O)[C@H](CCCCN)NC(=O)[C@H](CCCCN)NC(=O)[C@H](CCC(N)=O)NC(=O)[C@H](C)NC(=O)CNC(=O)[C@H](CCCCN)NC(=O)[C@H](Cc2ccc(O)cc2)NC(=O)[C@H](CCCCN)NC(=O)[C@H](CCCNC(=N)N)NC(=O)[C@H](C)NC(=O)COCCOCCNC(=O)COCCOCCNC(=O)CC[C@H](NC(=O)CCCCCCCCCCCCCCCCC(=O)O)C(=O)O)CSSC[C@@H](C(=O)O)NC(=O)CNC(=O)[C@H](CC(C)C)NC(=O)CNC(=O)[C@H](CO)NC(=O)[C@H](CC(C)C)NC(=O)[C@H](CO)NC(=O)CNC1=O` [Compound 0776] ({C18 diacid-γGlu-AEEA-AEEA}-ARKYKGAQKKGLSKGCFGLKLERIGSLSGLGC-OH; disulfide 16-32), the bioavailability in series [1] (sc) amounted to 7%; in series [2] (sc) it was 13%. Also, the clearance in series [1] (iv) is 1.34 mL/h/kg; in series [2] (iv), 0.841 mL/h/kg. In addition, the half-life in series [1] (iv) is 29 h; in series [1] (sc), 41 h; in series [2] (iv) it was 60 h; in series [2] (sc) it was 56 h.

In series [1] (sc), `CC[C@H](C)[C@@H]1NC(=O)[C@H](CCCNC(=N)N)NC(=O)[C@H](CC(=O)O)NC(=O)[C@H](CC(C)C)NC(=O)[C@H](CCCCN)NC(=O)[C@H](CC(C)C)NC(=O)CNC(=O)[C@H](Cc2ccccc2)NC(=O)[C@@H](NC(=O)CNC(=O)[C@H](CCCCN)NC(=O)[C@H](CO)NC(=O)[C@H](CC(C)C)NC(=O)CNC(=O)[C@H](CCCCN)NC(=O)[C@H](CCCCN)NC(=O)[C@H](CCC(N)=O)NC(=O)[C@H](C)NC(=O)CNC(=O)[C@H](Cc2c[nH]cn2)NC(=O)[C@H](CCC(=O)O)NC(=O)COCCOCCNC(=O)COCCOCCNC(=O)CC[C@H](NC(=O)CCCCCCCCCCCCCCCCC(=O)O)C(=O)O)CSSC[C@@H](C(=O)O)NC(=O)CNC(=O)[C@H](CC(C)C)NC(=O)CNC(=O)[C@H](CO)NC(=O)[C@H](CC(C)C)NC(=O)[C@H](CO)NC(=O)CNC1=O` [Compound 1235] showed a bioavailability of 25% and a half-life of 29 h. In series [1] (iv), this compound gave a clearance of 3.28 mL/h/kg and a half-life of 20 h.

Take `CC[C@H](C)[C@@H]1NC(=O)[C@H](CCCNC(=N)N)NC(=O)[C@H](CC(=O)O)NC(=O)[C@H](CC(C)C)NC(=O)[C@@H]2CCCN2C(=O)[C@H](CC(C)C)NC(=O)CNC(=O)[C@H](Cc2ccccc2)NC(=O)[C@@H](NC(=O)CNC(=O)[C@H](CCCCN)NC(=O)[C@H](CO)NC(=O)[C@@H](NC(=O)CNC(=O)[C@@H](NC(=O)[C@H](Cc2c[nH]cn2)NC(=O)[C@H](CCC(N)=O)NC(=O)[C@H](C)NC(=O)CNC(=O)[C@H](Cc2c[nH]cn2)NC(=O)[C@H](Cc2ccc(O)cc2)NC(=O)[C@H](CCCCN)NC(=O)[C@H](CCCNC(=N)N)NC(=O)[C@H](C)NC(=O)COCCOCCNC(=O)COCCOCCNC(=O)CC[C@H](NC(=O)CC[C@H](NC(=O)CC[C@H](NC(=O)CCCCCCCCCCCCCCCCC(=O)O)C(=O)O)C(=O)O)C(=O)O)[C@@H](C)O)C(C)C)CSSC[C@@H](C(=O)O)NC(=O)CNC(=O)[C@H](CC(C)C)NC(=O)CNC(=O)[C@H](CO)NC(=O)[C@H](CC(C)C)NC(=O)[C@H](CO)NC(=O)CNC1=O` [Compound 1420] ({C18 diacid-γGlu-γGlu-γGlu-AEEA-AEEA}-ARKYHGAQHTGVSKGCFGLPLDRIGSLSGLGC-OH; disulfide 16-32): in series [3], the “Number of injections by severity of necrosis: Mil.” value is listed as 1 and the “Number of injections by severity of necrosis: NAD (No Abnormalities Detected)” value was found to be 3.
